Values belong to the compound of their own block, whether it stands above or below them.
Legend:
Assay type in all cases: cell-based
[1] = tested on: endogenous F9 cell RAR; assay: CAT assay: reporter plasmid only transfected into F9 cells (endogenous RAR); details: for induction of CAT activity: G17-2 construct alone
Excerpt: Two different TREs, one the natural myosin heavy chain (MHC) promoter TRE, Izumo, S., et al., Nature, 334, 539 (1988), and the other a synthetic TRE—G17-2—derived from the rat growth hormone promoter, Glass, C. K., et al., Cell, 54, 313-323 (1988), were chosen, both references are incorporated herein by reference. The estrogen responsive element (ERE) used here is derived from the vitellogenin gene, Klein-Hitpass, L., et al., Cell 46, 1053-1061 (1986). As a convenient assay system a cotransfection CAT assay (chloramphenicol transacetylase) was chosen. When. […] Upon induction, MHC and G17-2-TRE constructs yield very similar levels of CAT activity. However, the MHC-TRE-CAT gene is highly constitutive (high basal level activity) whereas the G17-2 construct functions as an ideal RA inducible gene in that we observe a low basal activity and a more than 30 fold induction of CAT activity by RA (FIG. 6a and b). Similar levels of induction were obtained with TRα. F9 cells have been established as a cellular model for RA dependent differentiation and to contain RAR transcripts. Whether the endogenous F9 RAR can also activate the TRE-CAT genes, by transfecting the […] into F9 cells alone was investigated. […] The high basal level observed with the MHC construct prevents observation of a clear induction effect by the endogenous RAR. […]
F9 cells were cotransfected with 5 μg of the expression vectors PECE-RARε or PECE-TRα and 20 μg of the reporter plasmids G17-2 CAT or MHC-CAT. […] Fold activation is expressed as the ratio of relative CAT activity after hormone induction to relative CAT activity without hormone induction. […]
2×10^6 F9 cells were cultured as monolayer on gelatin-coated dishes in alpha-MEM (GIBCO, Santa Clara, Calif.), supplemented by 20% fetal calf serum (FCS), glutamine: and nucleosides as described in Grover, A., et al., J. Cell Biol. 96, […] (1983) which is incorporated herein by reference. […] For accurate determinations of chloramphenicol acetylation, the separated reaction products were cut out from silica plates and quantified in a scintillation counter. […]

[2] = biological target: T1, RAER chimaeric protein (RARε with hER DNA-binding domain) (Homo sapiens, UniProt P10826, DEL77-136/INS76TNDKGSMAMESAKETRYCAVCNDYASGYHYGVWSCEGCKAFFKRSIQGHNDYMCPATNQCTIDKNRRKSCQAC); assay: Co-transfection CAT assay: RAER chimaeric receptor plus ERE-CAT reporter gene in HeLa cells; details: only at high concentrations (3×10^−6 M)
T1 construct: a 304 bp 5′ untranslated region, the complete open reading frame, and a 55 bp 3′ untranslated region; expressed in transfected cells; host or cells: HeLa cells, PECE-RAER expression vector
T1 sequence (P10826 with tags, fused parts or gaps isoform P10826-2): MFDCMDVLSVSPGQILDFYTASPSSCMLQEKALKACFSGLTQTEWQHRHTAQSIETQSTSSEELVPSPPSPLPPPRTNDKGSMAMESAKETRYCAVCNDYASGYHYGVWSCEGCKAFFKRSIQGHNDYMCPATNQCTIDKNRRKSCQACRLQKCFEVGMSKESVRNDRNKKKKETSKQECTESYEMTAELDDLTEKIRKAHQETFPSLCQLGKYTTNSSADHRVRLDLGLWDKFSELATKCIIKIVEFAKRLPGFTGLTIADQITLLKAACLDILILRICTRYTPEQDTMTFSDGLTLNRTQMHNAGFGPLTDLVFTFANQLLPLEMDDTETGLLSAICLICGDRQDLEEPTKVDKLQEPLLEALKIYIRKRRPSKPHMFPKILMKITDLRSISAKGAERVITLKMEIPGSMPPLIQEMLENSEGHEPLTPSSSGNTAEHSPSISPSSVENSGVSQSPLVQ
Description: The hybrid receptor was then transfected into susceptible tissue-culture cells together with a reporter gene containing the relevant HRE. The effect of various potential activators of the novel receptor was measured from cells transiently transfected with both genes and grown in the presence and absence of the various ligands.
As a control, cells were treated with calcium phosphate or were transfected with the constitutive pSV2CAT vector. As further controls, cells were also transfected with ERE-CAT and ERE-CAT plus the oestrogen receptor (ER) expression vector pckR2ER and grown in the presence of Est.
After 5 hours, cells were shocked with 10% glycerol for 2 min. Eighteen hours after the start of transfection, steroid hormones or retinoids were added to the medium and cells were incubated for a further 24 hours before harvesting.

[3] = tested on: TR and RAR (RARε plus TRα or TRβ); assay: Cotransfection CAT assay: TR and RARε together with TRE-CAT gene (G17-2 CAT) in F9 and CV-1 cells; details: only T3 added, TR and RAR cotransfected
Description: One possible implication of this finding is that certain genes should be inducible by either hormone (T3) or vitamin (RA) in cells containing both receptors. To zest this hypothesis and to investigate possible positive and/or negative interactions of TR and RAR, both receptors were cotransfected into the same cells together with a TRE-CAT gene. […] Approximately 70% of the maximal activity is observed when only T3 is added. […] In the absence of T3, TR prevents activation of TREs by RARs, while in the presence of T3, TR activates and also allows positive cooperativity with RAR. The dominating regulatory effect can be carried out by both TRα and TRβ on both the RARε (FIG. 9) and the F9 endogenous RAR. Significant repression of RARε activity in F9 cells is observed between RARε: TRα ratios of 1:1 to 4:1.
As shown in FIG. 9(a), 5 μg of PECE-RARε plus 5 μg of PECE-TRα were cotransfected together with 20 μg of G17-2 CAT into F9 cells. As a control, each receptor was also cotransfected with G17-2 CAT individually. Hormones were added as indicated. As shown in FIG. 9(b), 2.5 μg of PECE-TRβ plus 2.5 μg of PECE-RARε were cotransfected with 20 μg of G17-2 CAT into CV-1 cells. As a control, PECE-RARε was also cotransfected with G17-2 individually. Hormones were added as indicated. CAT activity was assayed as described in Example VI.

SMILES: CC1=C(/C=C/C(C)=C/C=C/C(C)=C/C(=O)O)C(C)(C)CCC1 [retinoic acid]
induction of CAT activity ([1]; endogenous F9 RAR, in the presence of RA): 12 fold
RA concentration at which TRE dependent CAT activity can be induced ([1]; G17-2 construct, F9 RAR, RA tested between 3×10^−11 and 10^−6 M): ~0.1 nM

induction of CAT gene expression [2]: some inducing effect
SMILES: CC1=C(/C=C/C(C)=C/C=C/C(C)=C/CO)C(C)(C)CCC1 [retinol]

SMILES: N[C@@H](Cc1cc(I)c(Oc2ccc(O)c(I)c2)c(I)c1)C(=O)O [T3]
induction of CAT activity ([1]; F9 cells, in the presence of T3): no induction
CAT activity, percent of the maximal activity [3]: Approximately 70%

induction of CAT gene expression [2]: some inducing effect
SMILES: CC1=C(/C=C/C(C)=C/C=C/C(C)=C/C=O)C(C)(C)CCC1 [retinal]
